The results in this text go back to patent publication US11453640B2, “Small molecules for disrupting the super elongation complex and inhibiting transcription elongation for cancer therapy” (NORTHWESTERN UNIVERSITY, priority 2018, dated 2022).

In series [1] the target is T1, AFF4-CCNT1 interaction (GST-CCNT1 AA 1-300 and biotin-AFF4 peptide AA 32-67) (Homo sapiens, UniProt O60563).
T1 construct: Recombinant GST-CCNT1 (1-300), which was purified by Glutathione Superflow Agarose from Rosetta cells; VCPBIO (peptide synthesis) Addgene P#432; host or cells: Rosetta cells
T1 sequence (O60563 1-300): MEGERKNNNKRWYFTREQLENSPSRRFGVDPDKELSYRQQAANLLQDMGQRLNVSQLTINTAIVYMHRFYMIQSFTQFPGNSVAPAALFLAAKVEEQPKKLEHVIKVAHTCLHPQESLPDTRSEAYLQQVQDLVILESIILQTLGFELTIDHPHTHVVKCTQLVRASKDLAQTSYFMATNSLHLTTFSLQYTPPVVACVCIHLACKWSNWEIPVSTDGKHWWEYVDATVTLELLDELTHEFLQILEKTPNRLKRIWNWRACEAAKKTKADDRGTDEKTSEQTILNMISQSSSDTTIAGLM
Put plainly: AlphaLISA assay of the AFF4-CCNT1 interaction (Alpha Screen). The format is binding. The text has this: FIG. 1. Peptidomimetic identification of disruptors of the AFF4-CCNT1 interaction within the Super Elongation Complex. (A) Schematic for the identification of small molecule inhibitors of the AFF4-CCNT1 interaction using in silico high-throughput screening. Compounds from the ZINC database were docked with the AFF4-CCNT1 structure (4IMY) using a three-tier glide-docking algorithm, which led to 40 candidates. Residues forming the deep binding pocket of CCNT1 are labeled orange and residues of the AFF4 peptide are labeled red. (B) Validation screening identified KL-1 as a potential SEC disruptor using AlphaLISA screening. GST-CCNT1 (AA 1-300) and biotin-labeled AFF4 peptide (AA 32-67) were used to measure the AFF4-CCNT1 interaction with the AlphaLISA assay. (C) Similarity search for KL-1-like molecules identified KL-2. The peptidomimetic potential of KL-1 and KL-2 can be seen by overlaying them with the AFF4 peptide LFAEP structure. (D) Dose-dependent inhibition of KL-1 and KL-2 on AFF4-CCNT1 interaction. The Ki constants of both compounds were measured with the AlphaLISA assays. (E) Treatment of HEK293T cells with KL-1 and KL-2 results in reduced protein levels of SEC components AFF1 and AFF4 but not CDK9 or CCNT1. HEK293T cells were treated with 20 μM of SEC inhibitors KL-1 or KL-2 for 6 hr. 5 μl, 10 and 20 μl cell lysates were loaded and the protein levels of AFF1, AFF4, CCNT1, CDK9 and Tubulin (load control) were determined by western blotting.
FIG. 8, related to FIG. 1. Peptidomimetic identification of disruptors of the AFF4-CCNT1 interaction within the Super Elongation Complex. (A) Schematic of AlphaLISA assay of the AFF4-CCNT1 interaction. Anti-GST AlphaLISA acceptor beads and AlphaScreen streptavidin donor beads (Perkin Elmer) were used to detect the interaction of GST-CCNT1 (AA1-300) and biotin-AFF4 (AA32-67). (B-C) Optimization of the AlphaLISA assay with various biotin-AFF4 peptide and GST-CCNT1 concentrations. No CCNT1 (B) and mutant AFF4 (C) were used as negative controls. Data are represented as Mean+/−SD. (D) Scheme for chemical synthesis of SEC inhibitors KL-1 and KL-2. Reagents and conditions: a. LDA, THF, −78° C., 15 min., then diethyl oxalate, −78° C. to room temperature. b. NaOH, THF/H2O, room temperature, 15 min. c. EEDQ, 5-chloro-2-methylaniline, THF, room temperature, 24 hr. […] 293T cells were treated with 20 μM of KL-1 or KL-2 for 6 hr, and the protein levels of BRD2, BRD4, Pol II (RPB1), SPT5, MED26, MYC, HSP90 (load control) and Tubulin (load control) were measured by western blotting. (F) Treatment of HCT-116 cells with KL-1 and KL-2 reduced protein levels of SEC components AFF1 and AFF4 but not CDK9 or CCNT1. HCT-116 cells were treated with 20 μM of KL-1 or KL-2 for 6 hr, and the protein levels of AFF1, AFF4, CCNT1, CDK9 and Tubulin (load control) were determined by western blotting. (G-H) Treating cells with KL-1 and KL-2 results in reduced levels of AFF 1 and AFF4. FLAG-AFF1 (G) and FLAG-AFF4 (H) were expressed under the Tet-inducible promoter in HEK293T cells. Cells were treated with 20 μM of the indicated inhibitors for 6 hr for western blotting. […] RNA-seq was performed in HEK293T cells treated for 12 hr with 20 μM of the indicated inhibitors. The log2CPM (counts per million) of the SEC subunits were calculated with HTseq. KL-1 and KL-2 had no significant effects on CCNT1, CDK9 and AFF1 expression, but modest increases in the mRNA levels of AFF4 and ELL2 were observed (n=3). Unpaired two-way ANOVA was used for the statistical testes. **,p<0.05, ***,p<0.001.
To test if candidate compounds can disrupt the AFF4-CCNT1 interaction in vitro, we established and optimized a bead-based AlphaLISA assay with recombinant CCNT1 (1-300) protein and synthesized Biotin-AFF4 peptides (AA 32-67) (FIGS. 8A, 8B and 8C).
AlphaLISA Assay. The interaction of CCNT1-AFF4 was measured by Perkin Elmer's bead-based AlphaLISA assays. […]
For orientation: Alpha assays give light when donor and acceptor beads are brought close together.

A short description of series [2]: Toxicity test in mice (body weight, sickness). The format is in vivo. The conditions noted are these: 5 doses of 10 mg/kg, monitored 35 days. As for the experimental part: FIG. 14, related to FIG. 7. SEC disruptors delay tumor progression and improve survival of MDA231-LM2 tumor mice. (A) KL-1 and KL-2 inhibit the colony formation of MDA231-LM2 cells in vitro. 5×10^3 MDA231-LM2 cells were seeded in 6-well plates and treated with KL-1 or KL-2 at the indicated doses for 5 days. Crystal violet staining was performed to stain the colonies. (B) KL-1 and KL-2 induce apoptosis in MDA231-LM2 cells. Bar graph depiction of Annexin V positive MDA231-LM2 cells after 24 hr of KL-1 and KL-2 treatments at the indicated concentrations. Data are represented as Mean+/−SD. […] Each individual line indicates the weights of each mouse during toxicity test.

SMILES strings stand for the structures. Where only a bound is given, the exact number is not on record here.

As a reminder, the Ki is a dissociation constant, usually derived from enzyme kinetics or from competition with a known ligand. For the compound `Cc1ccc(Cl)cc1NC(=O)C(=O)CC(=O)c1ccc(F)cc1` [KL-2, N-(5-chloro-2-methylphenyl)-4-oxo-(4-fluorophenyl)-2-oxobutanamide], the Ki in series [1] (AlphaLISA, IC50 converted to Ki with the Cheng and Prusoff equation, read-out: Ki, inhibition of the AFF4-CCNT1 interaction) amounted to 1.5 µM. Besides, the “weight loss in mice” value in series [2] (intraperitoneal) is recorded as “does not result in significant weight loss”. The “sign of sickness in mice” value in series [2] is reported as “no obvious sign of sickness was observed”.
Broadly, the IC50 is the concentration that gives 50% inhibition. In turn, `Cc1nccnc1NC(=O)C(=O)CC(=O)c1ccc(F)cc1` [NUCC-0201596] showed an IC50 in series [1] of at least 30 µM.
As to `O=C(CC(=O)c1ccc(F)cc1)C(=O)NCc1ccccc1` [NUCC-0201688], the half-inhibitory concentration (IC50) in series [1] was at least 30 µM.
The compound `O=C(CC(=O)c1ccc(F)cc1)C(=O)NCc1ccncc1` [NUCC-0201689] displayed a half-inhibitory concentration (IC50) in series [1] of at least 30 µM.
On to `O=C(CC(=O)c1ccc(F)cc1)C(=O)Nc1nn[nH]n1` [NUCC-0201690], for which the midpoint of inhibition in series [1], the IC50, lay at 9.88 ± 0.6 µM.
For the compound `Cc1nc(NC(=O)C(=O)CC(=O)c2ccc(F)cc2)no1` [NUCC-0201691], in series [1], the IC50 is at least 60 µM.
The same measure, in the same setting: the result for `O=C(CC(=O)c1ccc(F)cc1)C(=O)Nc1nccs1` [NUCC-0201692] reads 20.8 ± 4.2 µM.
The same measure, in the same setting: the figure for `O=C(CC(=O)c1ccc(F)cc1)C(=O)Nc1cncc(F)c1` [NUCC-0201693] is 7.42 ± 0.26 µM; for `COc1cccc(C(=O)CC(=O)C(=O)Nc2ccc(F)c(F)c2)c1` [NUCC-0201921] it is 17.4 µM; for `COc1cc(NC(=O)C(=O)CC(=O)c2cccc(OC)c2)cc(OC)c1` [NUCC-0201922] it is 14.3 µM.
Turning to `COc1cccc(C(=O)CC(=O)C(=O)Nc2ccc(Cl)c(Cl)c2)c1` [NUCC-0201923], it took 12.8 µM to reach half-maximal inhibition in series [1] (IC50).
`COc1cccc(C(=O)CC(=O)C(=O)Nc2ccc(F)cc2)c1` [NUCC-0201924] yielded a 50% inhibitory concentration (IC50) in series [1] of 20 µM.
On the same count and under the same terms, the result for `COc1cccc(C(=O)CC(=O)C(=O)Nc2cccc(Cl)c2)c1` [NUCC-0201925] reads 14.4 µM; that for `COc1cccc(C(=O)CC(=O)C(=O)Nc2cc(C(=O)O)ccc2C)c1` [NUCC-0201926], 15.2 ± 8 µM; that for `COc1cccc(C(=O)CC(=O)C(=O)Nc2cncnc2C)c1` [NUCC-0201927], 17.9 ± 2.4 µM.
In turn, `COc1cccc(C(=O)CC(=O)C(=O)Nc2cccc(OC)c2C)c1` [NUCC-0201929] returned a half-inhibitory concentration (IC50) in series [1] of 15.7 µM.
The compound `COc1cccc(NC(=O)C(=O)CC(=O)c2ccc(F)cc2)c1C` [NUCC-0202067] showed a 50% inhibitory concentration (IC50) in series [1] of 21.3 ± 3.1 µM.
In turn, `O=C(CC(=O)c1ccc(F)cc1)C(=O)Nc1cccc(Cl)c1` [NUCC-0202068] yielded a half-maximal inhibitory concentration (IC50) in series [1] of 11.4 ± 0.9 µM. This IC50 is about 1.9-fold lower than that of the compound before.
On to `O=C(CC(=O)c1ccc(F)cc1)C(=O)NC1CCCC1` [NUCC-0202069], for which the IC50 in series [1] is at least 60 µM.
In series [1], `Cc1ccccc1NC(=O)C(=O)CC(=O)c1ccc(F)cc1` [NUCC-0202092] showed an IC50 of 14.8 ± 2 µM.
`Cc1ccc(Cl)cc1NC(=O)[C@@H](O)CC(=O)c1ccc(F)cc1` [NUCC-0202170] gave an IC50 in series [1] of 30.6 ± 1.4 µM.
Consider `CN1CC[C@H](c2c(O)cc(O)c3c(=O)cc(-c4ccccc4Cl)oc23)[C@H](O)C1` [flavopiridol, reference compound], for which the “disruption of the AFF4-CCNT1 interaction” value in series [1] (tested at 20 μM) is given as “neither the pan-CDK9 kinase inhibitor flavopiridol nor the BET domain inhibitors disrupted the AFF4-CCNT1 interaction”.
